Common to all, as to assay type: physicochemical
Data set [1] is described as follows: Co-crystal screen: XRPD post temperature cycling and post storage at 40° C./75% RH.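 As to XRPD results, primary co-crystal screen post temperature cycling: value is the Compound A free base XRPD pattern number and 9 means a potential new one.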 The note with it: for XRPD results, primary co-crystal screen post temperature cycling / XRPD results, primary co-crystal screen post storage at 40° C./75% RH: Compound A + 1.05 eq. co-former (= label); for XRPD form post storage at 40° C./75% RH: ca. 24 or ca. 30 hours.
The nature of data set [2]: Thermodynamic solubility determination in buffers (HPLC). The text has this:
No clear solubility advantage of the salts was noted over Compound A free base.

Data set [3] can be described thus: 7-day stability assessment (appearance, HPLC, XRPD). Particulars: for Reported Purity / Total impurities: HPLC; for purity retained after stability storage (HPLC): after 7 days at 40° C./75% RH (open vial), 80° C. (closed vial), ambient light (closed vial). As to the method: The material was gently ground to release any agglomerates and loaded onto a multi-well plate with Kapton or Mylar polymer film to support the sample. […] Data were visualized and images generated using the HighScore Plus 4.7 desktop application (PANalytical, 2θ17).
They all remained white or off-white solids. • XRPD analysis determined the patterns were retained.

The nature of data set [4]: Primary salt screen: XRPD post temperature cycling/evaporation, post drying and post storage at 40° C./75% RH. Particulars: post drying and 40° C./75% RH. On the procedure: • 30 mg samples of Compound A were weighed out into 2 mL screw cap sample vials for 96 experiments. To these, 200 μL of the appropriate solvent system was added to dissolve the material or form a slurry. See Table 16 for the solvent systems selected for the primary salt screen.
• 1.05 eq. of solid counterions were weighed into six separate vials each and 1 molar stock solutions were prepared for liquid counterions in 5 mL of THF. See Table 17 for selected counterions and mass/volume needed for 1.05 eq. additions. • 100 μL of the appropriate solvent was added to the solid counterions.
The solution/slurry of counterion was added to the solution/slurry of the free base material.
• The samples were placed in an incubator shaker to temperature cycle between ambient and 40° C. over 4 hour cycles. • After ca. 72 hours of temperature cycling, observations were noted, see Table 19.
• Where slurries were obtained, the solids were isolated via centrifugation. Solids and gels were analyzed by XRPD.
Any samples that were clear solutions after temperature cycling were left to evaporate at ambient conditions. See Table 20 for observations made after evaporation. Solids obtained through evaporation were analyzed by XRPD.
• The samples obtained from temperature cycling were dried under vacuum at 40° C. for ca. 20 hours while the samples obtained from evaporation were dried under vacuum at 40° C. for ca. 4 hours. […]

The mark [5] stands for this setting: Buffer pH 1.2, 25° C., cf concentration of free base, listed as Compound A Tosylate.
The mark [6] stands for this setting: Buffer pH 4.0, 25° C., LOQ 0.00025 mg/mL.
Setting [7] is: buffer, 25 °C, pH 3, aqueous buffer, thermodynamic from solid, Buffer pH 3.0, LOQ 0.00025 mg/mL.
Setting [8] is: Buffer pH 1.2, 25° C., cf concentration of free base, listed as Compound A Phosphate.
The mark [9] stands for this setting: Buffer pH 3.0, 25° C., LOQ 0.00025 mg/mL.
The mark [10] stands for this setting: Buffer pH 1.2, 25° C., cf concentration of free base, listed as Compound A Besylate.
Setting [11] is: input material before storage (baseline of the stability assessment).

Regarding `N[C@@H](Cc1c[nH]c2ccccc12)C(=O)O` [L-Tryptophan], in data set [1] (DCM:Methanol (50:50 % v/v)), the “XRPD results, primary co-crystal screen post temperature cycling” value is on record as 2.

On to `COc1cc(O[C@H]2C(C)(C)[C@H](NC(=O)c3ccc(N4CCC(CN5CCN(c6ccc(C(=O)N[C@H]7CCC(=O)NC7=O)c(F)c6)CC5)CC4)cc3)C2(C)C)ccc1C#N` [free base Pattern 9], for which the “XRPD form post storage at 40° C./75% RH” value in data set [1] is given as “converts to Pattern 4”; in data set [1] (listed as Pattern 9), “converted to free base Pattern 4”.

As to `O=C(O)[C@@H]1CCCN1` [L-Proline], the entries for the “XRPD results, primary co-crystal screen post storage at 40° C./75% RH” value (from here on “XRPD results … at 40° C./75% RH”) in data set [1] (1,4-Dioxane), in data set [1] (DCM:Methanol (50:50 % v/v)) and in data set [1] (THF) were 4, 2 and 1, respectively. Also, the “XRPD results, primary co-crystal screen post temperature cycling” value was found to be 9 in data set [1] (1,4-Dioxane), 2 in data set [1] (DCM:Methanol (50:50 % v/v)) and 1 in data set [1] (THF).

With `COc1cc(O[C@H]2C(C)(C)[C@H](NC(=O)c3ccc(N4CCC(CN5CCN(c6ccc(C(=O)N[C@H]7CCC(=O)NC7=O)c(F)c6)CC5)CC4)cc3)C2(C)C)ccc1C#N` [tosylate Pattern 1], the results for the “0 Hr Solubility” value in data set [2] (setting [5]) and in data set [2] (setting [6]) were 12.2 µg/mL and less than 0.25 µg/mL, respectively. The “4 Hr Solubility” value in data set [2] (setting [5]) was 15.4 µg/mL; in data set [2] (setting [6]), less than 0.25 µg/mL. The “24 Hr Solubility” value in data set [2] (setting [5]) was 6.3 µg/mL; in data set [2] (Buffer pH 4.0, 25° C., LOQ 0.00025 mg/mL, listed as Compound A Tosylate), less than 0.25 µg/mL. In data set [2] (setting [7]), the solubility (commonly the dissolved amount per volume that the medium holds) at 0 h was less than 0.25 µg/mL. The compound further had a solubility at 4 h in data set [2] (setting [7]) of less than 0.25 µg/mL. The solubility at 24 h in data set [2] (setting [7]) was less than 0.25 µg/mL. The figures for the HPLC purity in data set [3] (7 days at 40° C./75% RH (open vial)) and in data set [3] (before stability testing (condition N/A)) were 97.30 % relative area and 97.44 % relative area, respectively. The results for the “Reported Purity” value in data set [3] (after 7 days at 80° C.) and in data set [3] (after 7 days at ambient) were 96.76 Area % and 97.09 Area %, respectively. Besides, the figures for the Total impurities in data set [3] (after 7 days at 80° C.) and in data set [3] (after 7 days at ambient) were 3.24 Area % and 2.91 Area %, respectively. Also, the “Total impurities (HPLC)” value in data set [3] (after 7 days at 40° C./75% RH) was 2.70 Rel. Area %; in data set [3] (before stability testing) it was 2.56 Rel. Area %. For the same compound, in data set [3], the “purity retained after stability storage (HPLC)” value was more than 96 % relative area. For the same compound, the “XRPD pattern after stability storage” value in data set [3] (after 7 days at each stability condition) is given as “gained an additional peak”. In addition, the “assessment of salt form in the primary salt screen” value (from here on “assessment of salt form”) in data set [4] is on record as “stable hydrates”.

For the compound `NC(=O)c1cccnc1` [Nicotinamide], the “XRPD results … at 40° C./75% RH” value is on record as 4 in data set [1] (1,4-Dioxane), 2 in data set [1] (DCM:Methanol (50:50 % v/v)), 2 in data set [1] (DMSO:Water (50:50 % v/v)) and 1 in data set [1] (THF). In addition, the “XRPD results, primary co-crystal screen post temperature cycling” value in data set [1] (1,4-Dioxane) came out at 4; in data set [1] (DCM:Methanol (50:50 % v/v)), 2; in data set [1] (DMSO:Water (50:50 % v/v)) it was 2; in data set [1] (THF), 1.

Take `N[C@@H](Cc1ccccc1)C(=O)O` [L-Phenylalanine]: in data set [1] (1,4-Dioxane), the “XRPD results … at 40° C./75% RH” value came out at 4 and the “XRPD results, primary co-crystal screen post temperature cycling” value turned out to be 9.

As for `NC(N)=O` [Urea], the “XRPD results … at 40° C./75% RH” value in data set [1] (1,4-Dioxane) is listed as 4; in data set [1] (DCM:Methanol (50:50 % v/v)) it was 2; in data set [1] (THF) it was 1. Further, the figures for the “XRPD results, primary co-crystal screen post temperature cycling” value in data set [1] (1,4-Dioxane), in data set [1] (DCM:Methanol (50:50 % v/v)) and in data set [1] (THF) were 9, 2 and 1, respectively.

As for `COc1cc(O[C@H]2C(C)(C)[C@H](NC(=O)c3ccc(N4CCC(CN5CCN(c6ccc(C(=O)N[C@H]7CCC(=O)NC7=O)c(F)c6)CC5)CC4)cc3)C2(C)C)ccc1C#N` [phosphate Pattern 1], the “0 Hr Solubility” value in data set [2] (setting [8]) was 5.9 µg/mL; in data set [2] (setting [9]) it was less than 0.25 µg/mL; in data set [2] (setting [6]), less than 0.25 µg/mL. For the same compound, the results for the “4 Hr Solubility” value in data set [2] (setting [8]), in data set [2] (setting [9]) and in data set [2] (setting [6]) were 29.1 µg/mL, less than 0.25 µg/mL and less than 0.25 µg/mL, respectively. The “24 Hr Solubility” value is 30.6 µg/mL in data set [2] (setting [8]); less than 0.25 µg/mL in data set [2] (setting [9]); less than 0.25 µg/mL in data set [2] (Buffer pH 4.0, 25° C., LOQ 0.00025 mg/mL, listed as Compound A Phosphate). Further, the thermodynamic solubility in data set [2] (pH 1.2, after 24 hours, 25° C., as concentration of Compound A free base) stood at 30.6 µg/mL. Moreover, in data set [4], the “assessment of salt form” value is given as “stable hydrates”.

As to `COc1cc(O[C@H]2C(C)(C)[C@H](NC(=O)c3ccc(N4CCC(CN5CCN(c6ccc(C(=O)N[C@H]7CCC(=O)NC7=O)c(F)c6)CC5)CC4)cc3)C2(C)C)ccc1C#N` [besylate Pattern 1], the “0 Hr Solubility” value in data set [2] (setting [10]) is 13.3 µg/mL; in data set [2] (setting [9]), less than 0.25 µg/mL; in data set [2] (setting [6]) it was less than 0.25 µg/mL. For the same compound, the “4 Hr Solubility” value in data set [2] (setting [10]) is 7.3 µg/mL; in data set [2] (setting [9]), less than 0.25 µg/mL; in data set [2] (setting [6]), less than 0.25 µg/mL. For the same compound, the “24 Hr Solubility” value in data set [2] (setting [10]) is 9.3 µg/mL; in data set [2] (setting [9]), less than 0.25 µg/mL; in data set [2] (Buffer pH 4.0, 25° C., LOQ 0.00025 mg/mL, listed as Compound A Besylate) it was less than 0.25 µg/mL. The “Reported Purity” value is reported as 97.31 Area % in data set [3] (after 7 days at 40° C./75% RH), 97.56 Area % in data set [3] (after 7 days at 80° C.), 97.17 Area % in data set [3] (after 7 days at ambient) and 97.33 Area % in data set [3] (setting [11]). For the same compound, the Total impurities in data set [3] (after 7 days at 40° C./75% RH) is given as 2.69 Area %; in data set [3] (after 7 days at 80° C.), 2.44 Area %; in data set [3] (after 7 days at ambient) it was 2.83 Area %; in data set [3] (setting [11]) it was 2.67 Area %. The “purity retained after stability storage (HPLC)” value in data set [3] is more than 97 % relative area. For the same compound, the “assessment of salt form” value in data set [4] was “stable hydrates”.

As to `N[C@@H](Cc1ccc(O)cc1)C(=O)O` [L-Tyrosine], in data set [1] (1,4-Dioxane), the “XRPD results … at 40° C./75% RH” value is given as 4 and the “XRPD results, primary co-crystal screen post temperature cycling” value was 9. In data set [1] (DCM:Methanol (50:50 % v/v)), the “XRPD results … at 40° C./75% RH” value was 2 and the “XRPD results, primary co-crystal screen post temperature cycling” value stood at 2.

With `COC(=O)c1ccc(O)cc1` [Methylparaben], in data set [1] (DCM:Methanol (50:50 % v/v)), the “XRPD results … at 40° C./75% RH” value is recorded as 1 and the “XRPD results, primary co-crystal screen post temperature cycling” value was 1. In data set [1] (THF), the “XRPD results … at 40° C./75% RH” value amounted to 1 and the “XRPD results, primary co-crystal screen post temperature cycling” value was found to be 1.

With `N[C@@H](Cc1c[nH]cn1)C(=O)O` [L-Histidine], the “XRPD results … at 40° C./75% RH” value is recorded as 4 in data set [1] (1,4-Dioxane), 2 in data set [1] (DCM:Methanol (50:50 % v/v)) and 1 in data set [1] (THF). Also, the “XRPD results, primary co-crystal screen post temperature cycling” value in data set [1] (1,4-Dioxane) was 9; in data set [1] (DCM:Methanol (50:50 % v/v)), 2; in data set [1] (THF) it was 1.
